Assays:
[1] = tested on: lipid synthesis in S. aureus ATCC 29213; test: Macromolecular synthesis assay: lipid synthesis ([3H] glycerol); type: cell-based, Staphylococcus aureus
Protocol: Cells were grown at 35° C. overnight on Trypticase Soy agar. A colony from the plate was used to inoculate 10 ml of Mueller Hinton broth II (MHBII), and the culture was grown to early exponential growth phase (OD600==0.2 to 0.3) while incubating in a shaker at 35° C. and 200 rpm.
Bacterial cells were grown to early exponential growth phase in MHBII broth and added to 1.5 mL eppendorf tubes (in triplicate) containing various concentrations of test compound or control antibiotics as described above. Following a 5 min incubation at room temperature, [^3H] glycerol was added at 0.5 μCi per reaction.
Reactions were allowed to proceed at room temperature for 15 min and then stopped through the addition of 375 μL chloroform/methanol (1:2) followed by vortexing for 20 seconds after each addition. Chloroform (125 μL) was then added to each reaction, vortexed, followed by the addition of 125 μL dH2O and vortexing. Reactions were centrifuged at 13,000 rpm for 10 min, and then 150 μL of the organic phase was transferred to a scintillation vial and allowed to dry in a fume hood for at least 1 hr. Samples were then counted via liquid scintillation counting.

[2] = tested on: ATP release from S. aureus ATCC 29213; test: ATP release assay (CellTiter-Glo); type: cell-based, Staphylococcus aureus; details: positive control; 8 fold the MIC (256 μg/mL); 30 min exposure
Protocol: The CellTiter-Glo Luminescent Cell Viability Assay (Promega) was utilized to measure the leakage of ATP from bacteria. […] The negative control received 2% DMSO, which represented the final DMSO concentration in each assay. After a 30 min exposure to drug, cells were sedimented by centrifugation and the supernatant was analyzed for the presence of ATP. Results were expressed as ATP concentration released to the medium (μM).

Escherichia coli = test: Broth microdilution MIC, Example 7 (NCL812 and analogues); type: cell-based; details: 24 hours; 1st and 2nd replicate rows
Pseudomonas aeruginosa = test: as above; type: cell-based; details: 24 hours; 1st and 2nd replicate rows
S. pneumoniae strain D39 = test: MBC time kill studies (relative MBC at time points); type: cell-based, Streptococcus pneumoniae
Excerpt: MBC kill kinetics assays involved the preparation of three 96 well microtitre trays.

S. pneumoniae isolates [3] = test: Micro-broth dilution MIC, Example 5; type: cell-based, Streptococcus pneumoniae
Protocol: For all in vitro assays, fresh pneumococcal isolates were grown overnight (O/N) on horse blood agar (HBA) plates (39 g/L Columbia blood agar base [Oxoid] 5% [v/v] defribinated horse blood [Oxoid] at 37° C. with 5% supplemented CO2). Mueller-Hinton blood agar with 5% defibrinated sheep blood (MHSBA Roseworthy Media and Blood Service) was used for disk diffusion analysis as directed by Clinical Laboratory Standards Institute (CLSI) standards. Pneumococci were routinely grown in broth consisting of 4% lysed horse blood (LHB) with Cation Adjusted Mueller Hinton Broth (CAHMB, [Difco]) at 37° C. with 5% supplemented CO2. […] Isolates were stored in HSB at −80° C.
(§1) [Micro-broth dilutions and 96 well trays are prepared by the following method: 90 μL of 4% LHB:CAMHB is aliquotted into all wells using a multichannel pipette. 90 μL of working antimicrobial stocks were no serial diluted down the tray by a 1:2 dilution. Negative broth controls and dilution control were taken into account when planning the set up of a 96 well tray.] 10 μL of bacterial suspension was then added to the appropriate wells in the 96 well tray. Appropriate positive (no antimicrobial), negative (no antimicrobial or bacteria) and negative dilution (a serial dilution control of antimicrobial and broth) controls were included in each assay. […] The MBC was determined by a 99.95% inhibition of S. pneumoniae, taking into account the dilution factor. MICs and MBCs were determined in quadruplicate and the mode was taken as the representative value. The MIC50, MIC90 and MIC range and MBC50, MBC90 and MBC range were determined according to CLSI standards. The MIC50 and MIC90, or MBC50 and MBC90, are defined by the lowest concentrations which, when all the MICs and MBCs of the isolates are arranged from lowest to highest, inhibited the 50th and 90th percentile of the total amount of isolates, respectively.

VRE = test: Broth microdilution MIC, Example 7 (NCL812 and analogues); type: cell-based, Enterococcus spp.
In short: (§2)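 Isolates were tested in duplicate, with a third run if replicates differed by more than one two-fold dilution; inoculum purity was checked on sheep blood agar.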

[4] = Visual analysis of solubility in diluents and media, Example 5; type: physicochemical
MRSA = test: Broth microdilution MIC, Example 7 (NCL812 and analogues); type: cell-based, Staphylococcus aureus
In short: as §2

S. pneumoniae isolates [5] = test: MBC, Example 5; type: cell-based, Streptococcus pneumoniae
Protocol: as §1

[6] = Bioassay ranking of the analogues tested; details: M + R (MRSA and VRE combined)
[7] = isolate WCH158, Table 22, CAMHB diluent for NCL062

C/C=C/C/C=C/CCC(=O)[C@H]1O[C@H]1C(N)=O [cerulenin, Cerulenin, reference compound]
72%: inhibition of lipid synthesis [1]

Polymyxin B [reference compound]
approximately 0.34 μM: maximal ATP release [2]

C/C(=N\NC(=N)N/N=C(\C)c1ccc(Cl)cc1)c1ccc(Cl)cc1.Cl [NCL062]
Confluent: MIC (S. pneumoniae isolates [3]; isolate A66.1, Table 22, CAMHB diluent for NCL062) | MIC (S. pneumoniae isolates [3]; isolate D39, Table 22, CAMHB diluent for NCL062) | MIC (S. pneumoniae isolates [3]; isolate P21, Table 22, CAMHB diluent for NCL062) | MIC (S. pneumoniae isolates [3]; isolate WCH57, Table 22, CAMHB diluent for NCL062) | MIC (S. pneumoniae isolates [3]; [7]) | MIC (S. pneumoniae isolates [3]; isolate WU-2, Table 22, CAMHB diluent for NCL062)
8 µg/mL: immediate MBC (S. pneumoniae strain D39; within the first 10 min of administration) | MIC (S. pneumoniae isolates [3]; A66.1) | MIC (S. pneumoniae isolates [3]; L82016) | MIC (S. pneumoniae isolates [3]; TIGR4) | MIC (S. pneumoniae isolates [3]; WCH77) | MIC (S. pneumoniae isolates [3]; WCH92) | MIC50 (S. pneumoniae isolates [3]; all S. pneumoniae isolates) | MBC (S. pneumoniae isolates [5]; TIGR4) | MBC (S. pneumoniae isolates [5]; WCH57) | MBC (S. pneumoniae isolates [5]; WCH77) | MBC (S. pneumoniae isolates [5]; WCH86) | MBC (S. pneumoniae isolates [5]; WCH92)
1 µg/mL: MIC (μg/ml) at 24 hours, VRE 2 (VRE; isolate VRE 2, 24 hours, 1st and 2nd replicate rows)
Transparent: Visual analysis of solubility ([4]; Diluent CAMHB) | Visual analysis of solubility ([4]; Media 4% LHB:CAMHB) | Visual analysis of solubility ([4]; Media 10% horse serum-supplemented broth)
4 µg/mL: constant bactericidal concentration (S. pneumoniae strain D39; between 24 and 48 h) | Relative MIC with media type for D39 (S. pneumoniae isolates [3]; D39, 4% LHB:CAMHB) | MIC (S. pneumoniae isolates [3]; P9) | MIC (S. pneumoniae isolates [3]; P21) | MIC of D39, stored pre-prepared micro-titer trays (S. pneumoniae isolates [3]; Storage condition 4° C.) | MIC of D39, stored pre-prepared micro-titer trays (S. pneumoniae isolates [3]; Storage condition −2° C.) | MIC (S. pneumoniae isolates [3]; WCH57) | MIC (S. pneumoniae isolates [3]; WCH86) | MIC (S. pneumoniae isolates [3]; WCH89) | MIC (μg/ml) at 24 hours, MRSA 2 (MRSA; isolate MRSA 2, 24 hours, 1st and 2nd replicate rows) | MBC (S. pneumoniae isolates [5]; D39) | MBC (S. pneumoniae isolates [5]; P21) | MBC (S. pneumoniae isolates [5]; WCH43) | MBC (S. pneumoniae isolates [5]; WCH89) | MBC (S. pneumoniae isolates [5]; WCH137) | MBC (S. pneumoniae isolates [5]; WCH211)
2 µg/mL: MIC (S. pneumoniae isolates [3]; D39) | MIC (S. pneumoniae isolates [3]; WCH43) | MIC (S. pneumoniae isolates [3]; WCH137) | MIC (S. pneumoniae isolates [3]; WCH211) | MIC (μg/ml) at 24 hours, VRE 1 (VRE; isolate VRE 1, 24 hours, 1st and 2nd replicate rows) | MIC (μg/ml) at 24 hours, MRSA 1 (MRSA; isolate MRSA 1, 24 hours, 1st and 2nd replicate rows)
>128 µg/mL: MIC (μg/ml) at 24 hours, E. coli (Escherichia coli) | MIC (μg/ml) at 24 hours, P. aeruginosa (Pseudomonas aeruginosa)
1.5 µg/mL: VRE (VRE; bioassay ranking, VRE)
32 µg/mL: Relative MIC with media type for D39 (S. pneumoniae isolates [3]; D39, 10% horse serum-supplemented broth) | MIC (S. pneumoniae isolates [3]; WCH16) | MIC (S. pneumoniae isolates [3]; WCH46) | MIC90 (S. pneumoniae isolates [3]; all S. pneumoniae isolates) | MBC (S. pneumoniae isolates [5]; A66.1) | MBC (S. pneumoniae isolates [5]; L82016) | MBC (S. pneumoniae isolates [5]; WCH16) | MBC (S. pneumoniae isolates [5]; WCH46) | MBC90 (S. pneumoniae isolates [5]; all S. pneumoniae isolates)
2 to 32 µg/mL: MIC range (S. pneumoniae isolates [3]; all S. pneumoniae isolates)
2.25 µg/mL: M + R [6]
Precipitate: Visual analysis of solubility ([4]; Diluent DMSO) | Visual analysis of solubility ([4]; Diluent PBS)
16 µg/mL: MIC (S. pneumoniae isolates [3]; EF3030) | MIC (S. pneumoniae isolates [3]; WCH158) | MIC (S. pneumoniae isolates [3]; WCH184) | MIC (S. pneumoniae isolates [3]; WU2) | MBC (S. pneumoniae isolates [5]; EF3030) | MBC (S. pneumoniae isolates [5]; P9) | MBC (S. pneumoniae isolates [5]; WCH158) | MBC (S. pneumoniae isolates [5]; WCH184) | MBC50 (S. pneumoniae isolates [5]; all S. pneumoniae isolates)
3 µg/mL: MRSA (MRSA; bioassay ranking, MRSA)
greatest activity: activity against VRE among analogues (VRE; MIC testing, two VRE strains) | activity against MRSA among analogues (MRSA; MIC testing, two MRSA strains)
64 µg/mL: MBC (S. pneumoniae isolates [5]; WU2) | MBC (S. pneumoniae isolates [5]; [7])
4 to 64 µg/mL: MBC Range (S. pneumoniae isolates [5]; all S. pneumoniae isolates)

Reference: patent publication US10253002B2, “Compounds and methods of treating infections” (Neoculi Pty Ltd., priority 2013, dated 2019)
